Source: PMC6043687, “Structural Analysis of Phosphoserine Aminotransferase (Isoform 1) From Arabidopsis thaliana– the Enzyme Involved in the Phosphorylated Pathway of Serine Biosynthesis” (Frontiers in Plant Science, 2018)

Experiments:
AtPSAT1 [1] = molecular target: T1, AtPSAT1 (Arabidopsis thaliana, UniProt Q96255); assay: X-ray crystallography, […] Å; assay type: binding; settings: covalent; internal aldimine (Schiff base) with K265; 1 mM PLP added; pH 8.5, 0.2 M lithium sulfate
T1 construct: gene PSAT1; residues 72-430 (71-residue chloroplast transit peptide removed), 359 residues plus N-terminal SNA left after TEV cleavage of His6-tag; E. coli BL21 Gold, pMCSG68; homodimer (~80 kDa by SEC)
T1 sequence (Q96255 72-430): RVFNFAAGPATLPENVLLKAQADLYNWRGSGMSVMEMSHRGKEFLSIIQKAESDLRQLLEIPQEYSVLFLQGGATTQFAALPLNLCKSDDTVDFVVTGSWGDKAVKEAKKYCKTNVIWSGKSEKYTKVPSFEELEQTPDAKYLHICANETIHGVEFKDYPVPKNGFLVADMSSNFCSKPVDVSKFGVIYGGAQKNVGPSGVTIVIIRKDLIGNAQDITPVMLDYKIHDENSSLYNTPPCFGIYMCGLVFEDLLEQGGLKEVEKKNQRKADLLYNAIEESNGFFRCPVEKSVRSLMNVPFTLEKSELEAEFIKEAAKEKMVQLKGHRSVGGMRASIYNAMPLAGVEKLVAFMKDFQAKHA

AtPSAT1 [2] = molecular target: T1, AtPSAT1; assay: X-ray crystallography, […] Å; assay type: binding; settings: covalent; PLP-PSer geminal diamine intermediate also bound to K265; cocrystallized with 50 mM PSer, pH 8.5, no lithium sulfate
AtPSAT1 [3] = molecular target: T1, AtPSAT1; assay: X-ray crystallography: conversion of bound PLP to PMP; assay type: biochemical; settings: 10 mM Glu added before crystallization; pH 8.5; Glu itself not present in the structure
AtPSAT1 [4] = molecular target: T1, AtPSAT1; assay: X-ray crystallography, […] Å; assay type: binding; settings: PMP formed from PLP by addition of 10 mM Glu; not covalently bound to K265; pH 8.5, 0.2 M lithium sulfate
[5] = molecular target: the molecule itself; assay: SEC; HiLoad Superdex 200 16/60; 25 mM HEPES pH 7.4, 100 mM KCl, 50 mM NaCl, 1 mM TCEP; protein mass calculated from the retention volume (~80 kDa)

In the case of Cc1ncc(COP(=O)(O)O)c(C=O)c1O [PLP], the crystal structure (AtPSAT1 [1]) is reported as “The PLP prosthetic group creates a Schiff base (internal aldimine) between C4′ and Nζ of K265”.

With N[C@@H](COP(=O)(O)O)C(=O)O [PSer] the crystal structure (AtPSAT1 [2]) was “The bound PSer creates several hydrogen bonds in the active site”.

With N[C@@H](CCC(=O)O)C(=O)O [Glu] the “first half-transamination observed in crystal” value (AtPSAT1 [3]) was “electron density maps (Figures 6A,B) revealed the cofactor with the amino group already transferred from Glu”.

For Cc1ncc(COP(=O)(O)O)c(CN)c1O [PMP], the crystal structure (AtPSAT1 [4]) was “Position of PMP is almost identical as PLP, thus its interactions with the protein are preserved”.

B1: Phosphoserine aminotransferase isoform 1 from Arabidopsis thaliana (AtPSAT1), residues 72-430 (enzyme, UniProt Q96255 72-430, looked up)
chain: RVFNFAAGPATLPENVLLKAQADLYNWRGSGMSVMEMSHRGKEFLSIIQKAESDLRQLLEIPQEYSVLFLQGGATTQFAALPLNLCKSDDTVDFVVTGSWGDKAVKEAKKYCKTNVIWSGKSEKYTKVPSFEELEQTPDAKYLHICANETIHGVEFKDYPVPKNGFLVADMSSNFCSKPVDVSKFGVIYGGAQKNVGPSGVTIVIIRKDLIGNAQDITPVMLDYKIHDENSSLYNTPPCFGIYMCGLVFEDLLEQGGLKEVEKKNQRKADLLYNAIEESNGFFRCPVEKSVRSLMNVPFTLEKSELEAEFIKEAAKEKMVQLKGHRSVGGMRASIYNAMPLAGVEKLVAFMKDFQAKHA
modifications: PLP covalently bound to the catalytic K265 (internal aldimine, 6czx); PMP not covalently bound (6czy); cofactor covalently bound to both K265 and PSer (geminal diamine, 6czz)
notes: Phosphoserine aminotransferase isoform 1, chloroplastic, Arabidopsis thaliana; subunit of 430 residues including the transit peptide; construct truncated before R72 (71-residue chloroplast transit peptide removed), residues 72-430, 359 residues; After TEV cleavage the N-terminal residues SNA remain in front of R72 (vector pMCSG68); Crystallised with 1 mM PLP; with 10 mM Glu (PMP form) or 50 mM …
In the case of B1, the “stoichiometry N” value [5] is reported as 2.
